Experimental data taken from US10390536B2, “Methods, compounds and compositions for repelling insects and/or arachnids” (National Center for Scientific Research “Demokritos”, priority 2013, dated 2019).
Where two headings read alike, the source gives them in different places.

Experiments:
[1] = tested on: Anopheles gambiae (Giles) ss strain 16CSS female mosquitoes; experiment: warm body repellence assay (mosquito landings); assay type: in vivo; conditions: for repellent activity in the warm body assay (in words): candidate compounds, initially 1.0-5.0 μg/cm^2 (about 5-31.5 nmole/cm^2); for median repellency (%) at 20 nmol/cm2: read-out: Median Repellency (%)
Procedure: To test the behavior of female mosquitoes to an essential oil containing OBP binding components, a previously described repellence assay [Kröber et al. (2010). An In Vitro Assay for Testing Mosquito Repellents Employing a Warm Body and Carbon Dioxide as a Behavioral Activator. Journal of the American Mosquito Control Association 26(4) 381-386] was conducted that measures the number of mosquito landings on a warm surface onto which an essential oil containing at least one candidate compound was applied.
To conduct a repellency assay, a selected essential oil or ethanol negative control was applied to a warm body at a dose of about 3.8 μg/cm^2 and allowed to dry for 40 seconds in order to allow evaporation of the solvent before introduction into the test cage with mosquitoes. As positive control for repellence, DEET dissolved in ethanol was applied to the warm body at the same dose. The treated warm body in conjunction with a pulse of carbon dioxide was introduced into the test cage containing fifty Anopheles gambiae (Giles) ss strain 16CSS female mosquitoes that were 4-11 days old and the number of mosquito landings on the warm body occurring within a 2-minute period was counted. Each candidate compound was tested in five different cages (i.e., 250 female mosquitoes) in a randomized design, and the ethanol control and up to four candidate compounds were tested in each cage. Raw data on numbers of landings by mosquitoes were analyzed using a linear mixed model accounting for treatment, experimental day, the individual cage, the number of females per cage and the level of the carbon dioxide pulse in ppm using R (R Development Core Team, 2010) and the packages LME4 (Bates and Maechler, Ime4: Linear mixed-effects models using {S4} classes.{R} package version 0.999375-32, 2009) and NLME (Pinheiro et al, nlme: Linear and Nonlinear Mixed Effects Models, 2010; the R Development Core Team, R: A Language and Environment for Statistical Computing, 2010). Repellent values were calculated from counted landings on treatments versus the overall landings on pooled controls.
To test the behavior of female mosquitoes to a candidate compound identified in Example 5, behavioral assays were made using the identified compounds. The repellent assay was performed as described in Example 3, except that candidate compounds were dissolved in ethanol and tested initially at doses between 1.0 and 5.0 μg/cm^2 (about 5-31.5 nmole/cm^2) and, whenever necessary, at lower and/or higher doses as well. Besides the compounds identified in Example 5, compounds related to these were also tested including ethyl-cinnamate and butyl-cinnamate (Table 4).
To test the behavior of female mosquitoes to various combinations of candidate compounds identified in Example 6, repellence assays were made as in Example 3. These repellent assays were made to compare the effectiveness of the strongest repellent compounds identified in Example 6, including, without limitation, carvacrol, ethyl cinnamate, butyl cinnamate, and cumin alcohol with that of DEET.
The doses tested were 2, 4, 6 10 and 20 nmol/cm^2 for the single compounds. The binary 50:50 mixtures were tested at 2, 6, 10 and 20 nmol/cm^2, with each compound making up half the amount tested, so that, for example, the 2 nmol/cm^2 concentration in column A+B represents 1 nmol/cm^2 of A and 1 nmol/cm^2 of B in a binary mixture. DEET was also tested at 25 nmol (top response) and carvacrol was tested at the additional dose of 2.5 nmol (second from left within its column). As an indication, DEET at 20 nmol/cm^2=3.8 μg/cm^2. Mosquitoes were activated using a puff of CO2 from a gas tank upon introduction of the warm body into the test cage containing 50±5 A. gambiae females and mosquito landings were counted for 2 minutes. Each treatment (dose) was tested using five test cages, i.e. on a total of 250 female A. gambiae. […]

[2] = tested on: female A. gambiae antennae; experiment: GC-coupled electroantennogram (GC-EAG) recording; parameters: species or system Anopheles gambiae; conditions: compounds eluting from GC of essential oils
Source text: Electrophysiological recordings from whole mosquito antenna: Coupling EAG recordings from an A. gambiae antenna to the effluent of a high-resolution gas chromatographic (GC) column permitted the determination of the elution profiles of biologically active components of essential oils showing repellence. Recordings were made from to 4-9 day-old female mosquitoes. The head was excised at the occipital opening and placed on the reference glass electrode containing Hayes mosquito Ringer [Hayes (1953). Determination of a physiological saline for Aedes aegypti (L.). J Econ Entomol 46: 624-627] mounted in a humidified air-stream (90-98% RH; Guerin and Visser (1980). Electroantennogram Responses of the Carrot Fly, Psila rosae, to Volatile Plant Components. Physiological Entomology 5(2): 111-119] and its antenna exposed to compounds eluting from the GC column (Biessamann et al. (2010). The Anopheles gambiae odorant binding protein 1 (AgamOBP1) mediates indole recognition in the antennae of female mosquitoes. PLoS One 5(3): e9471]. The EAG response was recorded via a glass electrode filled with Kaissling sensillum lymph Ringer [Kaissling (1995). Single unit and electroantennogram recordings in insect olfactory organs. In Experimental Cell Biology of Taste and Olfaction. Current Techniques and Protocols, Spielman AlaB, J. G. (ed), 361-386. Boca Raton, Fla.: CRC Press] brought into contact with the terminal antennal segment whose tip was cut off. Only antennae showing an EAG response at least double the noise level to a 1 ml puff of air over 1 μg geranylacetone in a 5 ml stimulus syringe were used for recording EAG responses to the essential oils.
To conduct a GC-EAG analysis, about 2 μg of an essential oil was injected in 1-3 μL of dichloromethane (DCM) onto an apolar capillary column (95% dimethyl polysiloxan with 5% diphenyl polysiloxan, 15 m long, 0.25 mm i.d., 0.10 μm film thickness; BGB Analytik, Switzerland) installed in a 5300 Carlo Erba Instruments chromatograph. Hydrogen was used as carrier gas with the oven held at 40° C. for 3 minutes then heated up 25° C./min to 230° C. and held at the final temperature for 15 min. The column effluent was split (50:50) between the flame ionization detector (FID) of the chromatograph and the mosquito antennal preparation. The EAG signal was fed into an AC/DC amplifier (×100) via a high impedance preamplifier (×10), recorded on the hard disk of a PC via a 16-bit analogue-digital IDAC4 interface (Syntech, Netherlands) and monitored simultaneously with an oscilloscope (Tektronix 5103, USA). Kovats retention indices (KIs) were calculated for the EAG-active compounds present in the extracts and fractions. FIG. 1 illustrates the results obtained using the GC-EAG analysis. […]

[3] = tested on: sand fly Lutzomyia longipalpis; experiment: warm body repellence assay with sand flies; assay type: in vivo; conditions: for Median of landings: 2 minutes, control 48
Procedure: To test the effects of repellent compounds or compositions disclosed herein on other blood-feeding arthropods, a warm body repellence assay (Krober et. al. (2010). An In Vitro Assay for Testing Mosquito Repellents Employing a Warm Body and Carbon Dioxide as a Behavioral Activator. Journal of the American Mosquito Control Association 26(4): 381-386] was conducted using the sand fly Lutzomyia longipalpis (Diptera: Psychodidae), the principal vector of Leishmania (or leismaniasis) in the Americas.
[…] Fifty L. longipalpis sandflies (male:female ratio 1:1) of 3-7 days old were tested during the scotophase under conditions described for A. gambiae in Example 6. The test cages were lined with filter paper. Reduction in the number of landings by L. longipalpis sand fly females on a warm body treated with different test products compared to the control with solvent (ethanol p.a.) alone was used to evaluate repellence. Tests were conducted in complete darkness using IR LEDs to illuminate the warm body. Landings counted during 2 minutes were normalized by experimental day, cage, and number of females by a mixed linear model before testing for differences.

[4] = Anopheles gambiae, 2 min, 20 nmole per cm^2

Compound	repellent activity in the warm body assay (in words) [1]	EAG response of antenna [2]	also measured
C=CC(C)(O)CCC=C(C)C (centres unmarked) [linalool]	properties suggesting attractant activity	capable of triggering EAG responses	
C=C(C)[C@H]1CC=C(C)CC1 [(+) limonene, limonene]	only weak or no repellent activity at all		
limonene [(−) limonene]	only weak or no repellent activity at all		
CC(C)c1ccc(C=O)cc1 [cumin aldehyde]	only weak or no repellent activity at all	capable of triggering EAG responses	median repellency (%) at 20 nmol/cm2 ([1]; Anopheles gambiae, 2 min): 13.5%
C=C(C)[C@@H]1CC=C(C)C(=O)C1 [(−) carvone, carvone]	only weak or no repellent activity at all		
CC1=CCC2CC1C2(C)C (stereo not drawn) [α-pinene]	only weak or no repellent activity at all	capable of triggering EAG responses	
C=C1CCC2CC1C2(C)C (stereo not drawn) [β-pinene]	only weak or no repellent activity at all	capable of triggering EAG responses	
Cc1ccc(C(C)C)cc1 [p-cymene]	properties suggesting attractant activity	capable of triggering EAG responses	
Cc1ccc(C(C)C)c(O)c1 [thymol, 2-Isopropyl-5-methylphenol]	activity comparable to DEET		median repellency (%) at 31.5 nmol/cm2 ([1]; Anopheles gambiae, 2 min, 31.5 nmole per cm^2): 89.7%
CC(C)=C1CCC(C)(O)CC1 (centres unmarked) [γ-terpineol]		capable of triggering EAG responses	
C=C1CC/C=C(\C)CC[C@@H]2[C@@H]1CC2(C)C [β-caryophyllene]	only weak or no repellent activity at all	capable of triggering EAG responses	
CC1=CCC(C(C)C)=CC1 [γ-terpinene]	only weak or no repellent activity at all		
C=C(C)C1CC=C(C)C(=O)C1 (single isomer, unassigned; (+)) [(+) carvone, carvone]	only weak or no repellent activity at all		
CC1=C(C=O)C(C)(C)CC=C1 [safranal]	only weak or no repellent activity at all	capable of triggering EAG responses	
CC(C)c1ccc(C(=O)O)cc1 [cuminic acid]	activity comparable to DEET	capable of triggering EAG responses	Median of landings ([3]; 20 nmol/cm^2): 16; Median of landings ([3]; 200 nmol/cm^2): 13; repellence of sand flies from the warm body (in words) ([3]; 20 and 200 nmol/cm^2): as effective as DEET at 20 nmol/cm^2; median repellency (%) at 20 nmol/cm2 [1, 4]: 74.2%
COC(=O)C=Cc1ccccc1 [methyl-trans-cinnamate, methyl 3-phenylprop-2-enoate]	only weak or no repellent activity at all	capable of triggering EAG responses	median repellency (%) at 20 nmol/cm2 [1, 4]: 14%
